Columns and labels:
Type in all cases: biochemical
[1] = molecular target: T1, human IP6K1 (Homo sapiens, UniProt Q92551); assay: IP6K enzyme inhibitory assay (ADP-Glo Kinase Assay), human IP6K1; conditions: compound concentration 0.1 μM; read-out: ADP-Glo method inhibitory rate (%) human IP6K1
T1 construct: human IP6K1 (1-441) gene; GST; made in house; host or cells: Sf-9 insect cells
Experimental: (§1) IP6K Enzyme Inhibitory Assay
(§2) Human IP6K3 enzyme was prepared by transducing human IP6K3 (1-410) gene into BL21 (DE3) Escherichia coli and purifying by Ni-NTA (nickel-nitrilotriacetic acid) affinity column. […] The enzymes were used after preservation at −70° C. The IP6K enzyme inhibitory activity of the test compound was measured by the following experiment method and using ADP-Glo™ Kinase Assay (manufactured by Promega). A test compound diluted with an assay buffer (20 mM HEPES (pH 7.5), 6 mM MgCl2, 0.01% Tween-20, 1 mM DTT) was first added by 2 μL to a 384 well plate. […] The IP6K enzyme solution diluted with the assay buffer was added by 2 μL to start the enzyme reaction. Incubation was performed at room temperature for a given time (120 min for rat IP6K3 alone, 60 min for others). After incubation at room temperature, ADP-Glo solution prepared according to the protocol of Promega was added by 3 μL to the 384 well plate and reacted at room temperature for 30 min. Thereafter, Kinase-Detection solution was added by 6 μL to the 384 well plate and reacted at room temperature for 60 min. After the reaction, the luminescence intensity was measured by a plate reader Envision (manufactured by PerkinElmer).

[2] = molecular target: T2, human IP6K3 (Homo sapiens, UniProt Q96PC2); assay: IP6K enzyme inhibitory assay (ADP-Glo Kinase Assay), human IP6K3; conditions: compound concentration 0.1 μM; read-out: ADP-Glo method inhibitory rate (%) human IP6K3
T2 construct: human IP6K3 (1-410) gene; made in house; host or cells: BL21 (DE3) Escherichia coli
T2 sequence (Q96PC2 1-410): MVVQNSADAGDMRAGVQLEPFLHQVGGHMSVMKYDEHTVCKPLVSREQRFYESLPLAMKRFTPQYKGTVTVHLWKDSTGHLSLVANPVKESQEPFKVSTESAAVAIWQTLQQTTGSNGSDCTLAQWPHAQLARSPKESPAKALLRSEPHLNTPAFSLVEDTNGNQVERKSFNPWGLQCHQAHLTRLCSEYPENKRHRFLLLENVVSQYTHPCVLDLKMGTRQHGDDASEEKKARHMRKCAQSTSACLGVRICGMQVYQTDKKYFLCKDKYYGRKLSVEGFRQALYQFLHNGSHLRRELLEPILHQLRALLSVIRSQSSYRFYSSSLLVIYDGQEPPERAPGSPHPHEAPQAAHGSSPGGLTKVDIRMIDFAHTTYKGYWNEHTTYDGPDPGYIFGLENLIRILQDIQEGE
Experimental: as §1, §2

[3] = molecular target: T3, human IP6K2 (Homo sapiens, UniProt Q9UHH9); assay: IP6K enzyme inhibitory assay (ADP-Glo Kinase Assay), human IP6K2; conditions: compound concentration 0.1 μM; read-out: ADP-Glo method inhibitory rate (%) human IP6K2
T3 construct: human IP6K2 (1-426) gene; GST; made in house; host or cells: Sf-9 insect cells
T3 sequence (Q9UHH9 1-426): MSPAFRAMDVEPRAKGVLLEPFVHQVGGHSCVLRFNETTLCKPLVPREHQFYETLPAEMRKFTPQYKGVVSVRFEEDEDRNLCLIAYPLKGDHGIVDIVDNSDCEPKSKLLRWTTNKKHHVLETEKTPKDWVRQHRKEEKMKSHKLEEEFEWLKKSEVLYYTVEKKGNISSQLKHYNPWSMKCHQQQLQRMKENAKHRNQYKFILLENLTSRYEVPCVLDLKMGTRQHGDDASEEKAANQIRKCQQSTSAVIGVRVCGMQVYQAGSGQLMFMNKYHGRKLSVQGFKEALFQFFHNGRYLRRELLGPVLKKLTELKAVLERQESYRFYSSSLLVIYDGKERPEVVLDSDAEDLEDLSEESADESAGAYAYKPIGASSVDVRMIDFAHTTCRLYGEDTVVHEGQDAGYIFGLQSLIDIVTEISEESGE
Experimental: as §1, §2

T1 sequence (Q92551 whole entry): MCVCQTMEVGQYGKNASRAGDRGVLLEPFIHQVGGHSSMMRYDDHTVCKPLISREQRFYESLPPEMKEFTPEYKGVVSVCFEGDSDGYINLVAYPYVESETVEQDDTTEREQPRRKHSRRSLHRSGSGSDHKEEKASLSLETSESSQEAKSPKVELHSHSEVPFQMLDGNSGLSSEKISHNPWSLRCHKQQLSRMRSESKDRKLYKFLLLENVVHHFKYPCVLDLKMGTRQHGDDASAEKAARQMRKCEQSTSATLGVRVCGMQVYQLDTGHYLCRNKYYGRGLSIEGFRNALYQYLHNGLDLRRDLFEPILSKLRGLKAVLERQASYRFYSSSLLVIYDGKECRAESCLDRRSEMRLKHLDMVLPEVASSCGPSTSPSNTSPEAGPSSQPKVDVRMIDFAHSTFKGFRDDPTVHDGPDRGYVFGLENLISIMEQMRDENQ

inhibition at 0.1 µM [1]	inhibition at 0.1 µM [2]	inhibition at 0.1 µM [3]	SMILES
100%	100%	97%	O=C(O)c1ccc2c(c1)[C@]1(CC[C@H](Oc3ncc(F)cc3F)CC1)C(=O)N2 [Example 13, (1s,4s)-4-((3,5-difluoropyridin-2-yl)oxy)-2′-oxo-1′,2′-dihydrospiro[cyclohexane-1,3′-indole]-5′-carboxylic acid]
99%	91%	101%	O=C(O)c1ccc2c(c1)[C@]1(CC[C@H](Oc3ccc(Cl)cc3Cl)CC1)C(=O)N2 [Example 15, (1s,4s)-4-(2,4-dichlorophenoxy)-2′-oxo-1′,2′-dihydrospiro[cyclohexane-1,3′-indole]-5′-carboxylic acid]
99%	98%	89%	O=C(O)c1ccc2c(n1)[C@]1(CC[C@@H](Oc3ncc(C4CC4)cc3Cl)CC1)C(=O)N2 [Example 16, (1r,4r)-4-((3-chloro-5-cyclopropylpyridin-2-yl)oxy)-2′-oxo-1′,2′-dihydrospiro[cyclohexane-1,3′-pyrrolo[3,2-b]pyridine]-5′-carboxylic acid]
92%	93%	91%	Cc1cc(Cl)cnc1O[C@H]1CC[C@@]2(CC1)C(=O)Nc1ccc(C(=O)O)nc12 [Example 17, (1r,4r)-4-((5-chloro-3-methylpyridin-2-yl)oxy)-2′-oxo-1′,2′-dihydrospiro[cyclohexane-1,3′-pyrrolo[3,2-b]pyridine]-5′-carboxylic acid]
54%	77%	62%	Cc1ccc(C(F)(F)F)c(O[C@H]2CC[C@@]3(CC2)C(=O)Nc2ccc(C(=O)O)nc23)n1 [Example 18, (1r,4r)-4-((6-methyl-3-(trifluoromethyl)pyridin-2-yl)oxy)-2′-oxo-1′,2′-dihydrospiro[cyclohexane-1,3′-pyrrolo[3,2-b]pyridine]-5′-carboxylic acid]
40%	70%	45%	O=C(O)c1ccc2c(c1)[C@]1(CC[C@@H](Oc3ccccn3)CC1)C(=O)N2 [Example 19, (1r,4r)-2′-oxo-4-[pyridin-2-yloxy)-1′,2′-dihydrospiro[cyclohexane-1,3′-indole]-5′-carboxylic acid]
79%	98%	95%	Cc1ccc(O[C@H]2CC[C@@]3(CC2)C(=O)Nc2ccc(C(=O)O)cc23)nc1 [Example 20, (1r,4r)-4-((5-methylpyridin-2-yl)oxy)-2′-oxo-1′,2′-dihydrospiro[cyclohexane-1,3′-indole]-5′-carboxylic acid]
79%	96%	91%	Cc1cccnc1O[C@H]1CC[C@@]2(CC1)C(=O)Nc1ccc(C(=O)O)cc12 [Example 21, (1r,4r)-4-((3-methylpyridin-2-yl)oxy)-2′-oxo-1′,2′-dihydrospiro[cyclohexane-1,3′-indole]-5′-carboxylic acid]
72%	90%	72%	O=C(O)c1ccc2c(c1)[C@]1(CC[C@@H](Oc3ccc(F)cn3)CC1)C(=O)N2 [Example 22, (1r,4r)-4-((5-fluoropyridin-2-yl)oxy)-2′-oxo-1′,2′-dihydrospiro[cyclohexane-1,3′-indole]-5′-carboxylic acid]
72%	92%	79%	O=C(O)c1ccc2c(c1)[C@]1(CC[C@@H](Oc3cc(Cl)ccn3)CC1)C(=O)N2 [Example 23, (1r,4r)-4-((4-chloropyridin-2-yl)oxy)-2′-oxo-1′,2′-dihydrospiro[cyclohexane-1,3′-indole]-5′-carboxylic acid]
86%	92%	92%	O=C(O)c1ccc2c(c1)[C@]1(CC[C@@H](Oc3ncccc3Cl)CC1)C(=O)N2 [Example 24, (1r,4r)-4-((3-chloropyridin-2-yl)oxy)-2′-oxo-1′,2′-dihydrospiro[cyclohexane-1,3′-indole]-5′-carboxylic acid]
